*1 amine or outer side, *2 acyl side, *3 side chain or, on linkers, in order; H or OH if unused. Where a SMILES comes first, the peptide text is derived from it. Side-chain parts run from the residue outwards. [ ]: non-standard residue; d: D form. The star is where a group is joined. C20 diacid = O=C(O)CCCCCCCCCCCCCCCCCCC(=O)*; C18 diacid = O=C(O)CCCCCCCCCCCCCCCCC(=O)*; γGlu = O=C(O)[C@H](CCC(=O)[*:2])N[*:1]; NMeI = CC[C@H](C)[C@H](NC)C(=O)O; Pentanoyl = CCCCC(=O)*; Aib = CC(C)(N)C(=O)O
What was measured:
[1] = target: T1, human CRF2a receptor (Homo sapiens, UniProt Q13324); assay: Activity at human CRF2a receptor, cAMP functional assay in TeloHEAC cells; assay type: cell-based; conditions: TeloHEAC cells stably expressing human CRF2a receptor, relative to urocortin 2 (100 nM = 100%)
T1 construct: expressed in transfected cells; host or cells: TeloHEAC cells
T1 sequence (Q13324 1-411): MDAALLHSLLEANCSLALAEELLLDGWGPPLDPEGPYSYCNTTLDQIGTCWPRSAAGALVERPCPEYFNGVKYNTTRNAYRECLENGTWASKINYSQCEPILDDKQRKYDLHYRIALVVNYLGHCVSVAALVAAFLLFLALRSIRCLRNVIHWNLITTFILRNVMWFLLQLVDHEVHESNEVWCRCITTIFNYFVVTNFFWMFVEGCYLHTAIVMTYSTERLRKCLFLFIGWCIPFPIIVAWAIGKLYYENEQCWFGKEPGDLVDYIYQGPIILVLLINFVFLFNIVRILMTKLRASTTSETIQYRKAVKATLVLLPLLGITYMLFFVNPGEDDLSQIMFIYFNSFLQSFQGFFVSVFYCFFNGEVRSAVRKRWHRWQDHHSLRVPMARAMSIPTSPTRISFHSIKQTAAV
Summary of the method: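 cAMP accumulation was measured by HTRF 665/620 nm ratio after 30 min at 37° C compound exposure (16 twofold dilutions) of CRF2a-expressing TeloHEAC cells, 10000/well, in HEPES-buffered HBSS plus IBMX. Activity was normalised to urocortin 2 at 100 nM (100%), and EC50 was the concentration giving half-maximal activation.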

[2] = system: Sprague Dawley rats; assay: Effect on systolic blood pressure, telemetry in Sprague Dawley rats; assay type: in vivo, rat; conditions: 0.1 mg/kg SC; for Systolic blood pressure (Mean) % change from baseline, 8 h / Systolic blood pressure (Mean) % change from baseline, 12 h / Systolic blood pressure (Mean) % change from baseline, 24 h: n=2; for Duration of action: last time point with an effect on BP still observed
Experimental: The effect of the compounds on systolic blood pressure was determined in telemetry studies in Sprague Dawley rats at a dosage of 0.1 mg/kg SC.
The rats were previously implanted with a telemetry device (DSI, Saint-Paul, USA, HD-S10, HD-S11 or HD S21) and allowed to recover for a minimum period of 2 weeks before treatment with vehicle or the different peptides. Blood pressure (BP) was recorded through a catheter inserted into the abdominal aorta. The device body was placed in the abdomen. The animals were allowed to recover from surgery for at least 10 days before the first administration of test drug or vehicle.
The chronically instrumented rats of the telemetry studies were individually housed immediately after surgery and then housed in pairs with a non-instrumented companion after recovery.
Systolic blood pressure was recorded for one hour before treatment (basal period). Thereafter, the subcutaneous administration of the test compound or its vehicle was performed, under continuous recording of the signal up to 48 hours, analysed and expressed as % change from baseline.
Representative data are presented in Table 13 below, in which “Duration of action” indicates the last time point for which an effect on BP was still observed (n=2 animals/peptide)

[3] = target: T2, CFR1R receptor (Homo sapiens, UniProt P34998); assay: Activity at anti-target CFR1R receptor, cAMP assay in CRF1R-overexpression CHO-K1 cells; assay type: cell-based; conditions: 100% = Sauvagine at 100 nM; for EC50: cAMP
T2 construct: host or cells: CHO-K1 (clone 2)
T2 sequence (P34998 24-415): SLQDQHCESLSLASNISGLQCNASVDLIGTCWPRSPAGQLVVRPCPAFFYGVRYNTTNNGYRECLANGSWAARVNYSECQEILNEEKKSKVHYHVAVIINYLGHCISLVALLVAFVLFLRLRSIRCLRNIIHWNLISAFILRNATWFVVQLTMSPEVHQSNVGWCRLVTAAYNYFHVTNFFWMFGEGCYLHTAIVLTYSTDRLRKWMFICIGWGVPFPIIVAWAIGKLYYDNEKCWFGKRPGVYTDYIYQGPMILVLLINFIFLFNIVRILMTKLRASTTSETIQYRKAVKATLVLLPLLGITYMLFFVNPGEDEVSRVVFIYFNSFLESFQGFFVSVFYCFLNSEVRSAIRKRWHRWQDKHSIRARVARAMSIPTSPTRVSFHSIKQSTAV
Summary of the method: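 Signal is normalised to 100 nM Sauvagine, taken as 100% activation, in clone 2 cells plated at a final 4000 cells/well from frozen stocks.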

Row | EC50 [1] | Emax (% I) [3] | EC50 [3] | Structure (SMILES) | Systolic blood pressure (Mean) % change from baseline, 8 h [2] | Systolic blood pressure (Mean) % change from baseline, 12 h [2] | Systolic blood pressure (Mean) % change from baseline, 24 h [2] | Duration of action [2]
1 | 0.44 nM | 10 % I | > 250 nM | CCCCC(=O)N[C@H](C(=O)N[C@@H](CC(C)C)C(=O)N[C@@H](CO)C(=O)N[C@@H](CC(C)C)C(=O)N[C@@H](CC(=O)O)C(=O)N[C@@H](C(=O)N1CCC[C@H]1C(=O)N[C@H](C(=O)N[C@@H](CCCCN)C(=O)N[C@@H](CC(C)C)C(=O)N[C@@H](CCCCNC(=O)CC[C@H](NC(=O)CCCCCCCCCCCCCCCCC(=O)O)C(=O)O)C(=O)N[C@@H](CCCCN)C(=O)N[C@H](C(=O)N[C@@H](CC(C)C)C(=O)N[C@@H](CC(C)C)C(=O)N[C@@H](CCC(=O)O)C(=O)N[C@@H](CCC(N)=O)C(=O)N[C@@H](CCC(=O)O)C(=O)N[C@@H](CCCCN)C(=O)N[C@@H](CCC(N)=O)C(=O)N[C@@H](CCCCN)C(=O)NC(C)(C)C(=O)N[C@@H](CCC(N)=O)C(=O)N[C@@H](CCCNC(=N)N)C(=O)N[C@@H](CCC(=O)O)C(=O)N[C@@H](CCC(N)=O)C(=O)N[C@@H](C)C(=O)N[C@@H](CCC(=O)O)C(=O)N[C@H](C(=O)N[C@@H](CC(N)=O)C(=O)NC(C)(C)C(=O)N[C@@H](CCC(N)=O)C(=O)N[C@H](C(=O)N[C@@H](CC(C)C)C(=O)N[C@@H](C)C(=O)N[C@@H](CCC(N)=O)C(=O)N[C@H](C(N)=O)C(C)C)[C@@H](C)CC)[C@@H](C)O)[C@@H](C)CC)[C@@H](C)CC)C(C)C)C(C)C [compound 194] (Pentanoyl-VLSLD[dV]PIKLK([γGlu-C18 diacid])KILLEQEKQK[Aib]QREQAETN[Aib]QILAQV-NH2) | −13% | −3% | 18% | 19 h
2 | 0.22 nM | 21 % I | > 250 nM | CC[C@H](C)[C@H](NC(C)=O)C(=O)N[C@H](C(=O)N[C@@H](CC(C)C)C(=O)N[C@@H](CO)C(=O)N[C@@H](CC(C)C)C(=O)N[C@@H](CC(=O)O)C(=O)N[C@@H](C(=O)N1CCC[C@H]1C(=O)N[C@H](C(=O)N[C@@H](CCCCN)C(=O)N[C@@H](CC(C)C)C(=O)N[C@@H](CCCCNC(=O)CC[C@H](NC(=O)CCCCCCCCCCCCCCCCCCC(=O)O)C(=O)O)C(=O)N[C@@H](CCCCN)C(=O)N[C@H](C(=O)N[C@@H](CC(C)C)C(=O)N[C@@H](CC(C)C)C(=O)N[C@@H](CCC(=O)O)C(=O)N[C@@H](CCC(N)=O)C(=O)N[C@@H](CCC(=O)O)C(=O)N[C@@H](CCCCN)C(=O)N[C@@H](CCC(N)=O)C(=O)N[C@@H](CCCCN)C(=O)NC(C)(C)C(=O)N[C@@H](CCC(N)=O)C(=O)N[C@@H](CCCNC(=N)N)C(=O)N[C@@H](CCC(=O)O)C(=O)N[C@@H](CCC(N)=O)C(=O)N[C@@H](C)C(=O)N[C@@H](CCC(=O)O)C(=O)N[C@H](C(=O)N[C@@H](CC(N)=O)C(=O)NC(C)(C)C(=O)N[C@@H](CCC(N)=O)C(=O)N[C@H](C(=O)N[C@@H](CC(C)C)C(=O)N[C@@H](C)C(=O)N[C@@H](CCC(N)=O)C(=O)N[C@H](C(N)=O)C(C)C)[C@@H](C)CC)[C@@H](C)O)[C@@H](C)CC)[C@@H](C)CC)C(C)C)C(C)C [compound 209] (Ac-IVLSLD[dV]PIKLK([γGlu-C20 diacid])KILLEQEKQK[Aib]QREQAETN[Aib]QILAQV-NH2) | −18% | −11% | 3% | 23 h
3 | 0.27 nM | 32 % I | > 250 nM | CCCCC(=O)N[C@H](C(=O)N[C@@H](CC(C)C)C(=O)N[C@@H](CO)C(=O)N[C@@H](CC(C)C)C(=O)N[C@@H](CC(=O)O)C(=O)N[C@@H](C(=O)N1CCC[C@H]1C(=O)N[C@H](C(=O)N[C@@H](CCCCN)C(=O)N[C@@H](CC(C)C)C(=O)N[C@@H](CCCCNC(=O)CC[C@H](NC(=O)CCCCCCCCCCCCCCCCCCC(=O)O)C(=O)O)C(=O)N[C@@H](CCCCN)C(=O)N[C@H](C(=O)N[C@@H](CC(C)C)C(=O)N[C@@H](CC(C)C)C(=O)N[C@@H](CCC(=O)O)C(=O)N[C@@H](CCC(N)=O)C(=O)N[C@@H](CCC(=O)O)C(=O)N[C@@H](CCCCN)C(=O)N[C@@H](CCC(N)=O)C(=O)N[C@@H](CCCCN)C(=O)NC(C)(C)C(=O)N[C@@H](CCC(N)=O)C(=O)N[C@@H](CCCNC(=N)N)C(=O)N[C@@H](CCC(=O)O)C(=O)N[C@@H](CCC(N)=O)C(=O)N[C@@H](C)C(=O)N[C@@H](CCC(=O)O)C(=O)N[C@H](C(=O)N[C@@H](CC(N)=O)C(=O)NC(C)(C)C(=O)N[C@@H](CCC(N)=O)C(=O)N[C@H](C(=O)N[C@@H](CC(C)C)C(=O)N[C@@H](C)C(=O)N[C@@H](CCC(N)=O)C(=O)N[C@H](C(N)=O)C(C)C)[C@@H](C)CC)[C@@H](C)O)[C@@H](C)CC)[C@@H](C)CC)C(C)C)C(C)C [compound 220] (Pentanoyl-VLSLD[dV]PIKLK([γGlu-C20 diacid])KILLEQEKQK[Aib]QREQAETN[Aib]QILAQV-NH2) | −17% | −14% | −11% | >24 h
4 | 0.11 nM | 43 % I |  | CC[C@H](C)[C@H](NC)C(=O)N[C@H](C(=O)N[C@@H](CC(C)C)C(=O)N[C@@H](CO)C(=O)N[C@@H](CC(C)C)C(=O)N[C@@H](CC(=O)O)C(=O)N[C@@H](C(=O)N1CCC[C@H]1C(=O)N[C@H](C(=O)NCC(=O)N[C@@H](CC(C)C)C(=O)N[C@@H](CCCCNC(=O)CC[C@H](NC(=O)CCCCCCCCCCCCCCCCCCC(=O)O)C(=O)O)C(=O)N[C@@H](CCCCN)C(=O)N[C@H](C(=O)N[C@@H](CC(C)C)C(=O)N[C@@H](CC(C)C)C(=O)N[C@@H](CCC(=O)O)C(=O)N[C@@H](CCC(N)=O)C(=O)N[C@@H](CCC(=O)O)C(=O)N[C@@H](CCCCN)C(=O)N[C@@H](CCC(N)=O)C(=O)N[C@@H](CCCCN)C(=O)N[C@@H](CCCCN)C(=O)N[C@@H](CCC(N)=O)C(=O)N[C@@H](CCCNC(=N)N)C(=O)N[C@@H](CCC(=O)O)C(=O)N[C@@H](CCC(N)=O)C(=O)N[C@@H](C)C(=O)N[C@@H](CCC(=O)O)C(=O)N[C@H](C(=O)N[C@@H](CC(N)=O)C(=O)NC(C)(C)C(=O)N[C@@H](CCC(N)=O)C(=O)N[C@H](C(=O)N[C@@H](CC(C)C)C(=O)N[C@@H](C)C(=O)N[C@@H](CCC(N)=O)C(=O)N[C@H](C(N)=O)C(C)C)[C@@H](C)CC)[C@@H](C)O)[C@@H](C)CC)[C@@H](C)CC)C(C)C)C(C)C [compound 229] (H-[NMeI]VLSLD[dV]PIGLK([γGlu-C20 diacid])KILLEQEKQKKQREQAETN[Aib]QILAQV-NH2) | −12% | −9% | −5% | >24 h
